According to PubChem BioAssay AID248 (DTP/NCI, 2004):
Toxic doses and inconclusive results are not listed. No stated cut-off is given here; in the data, active means T/C of 150% or more; inactive means T/C below 125%.

Test system: L1210 leukemia ip in BDF1 mice, survival T/C
Assay: NCI In Vivo Anticancer Drug Screen. Data for tumor model L1210 Leukemia (intraperitoneal) in B6D2F1 (BDF1) mice
Conditions: endpoint: mean survival time, higher = longer survival
Procedure, shortened: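 Antitumor effect is assessed in tumor-bearing animals. Survival in the compound arm is compared with a vehicle-dosed control arm and expressed as their quotient.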

[1] = dose: 50.0 mg/kg/injection, schedule: Q01DX009 (ip), vehicle: saline with Tween-80
[2] = dose: 100.0 mg/kg/injection, schedule: Q04DX003 (ip), vehicle: Klucel (hydroxypropylcellulose) (HPC)
[3] = dose: 100.0 mg/kg/injection, schedule: Q04DX003 (ip), vehicle: saline
[4] = dose: 200.0 mg/kg/injection, schedule: Q04DX003 (ip), vehicle: Klucel (hydroxypropylcellulose) (HPC)
[5] = dose: 400.0 mg/kg/injection, schedule: Q04DX003 (ip), vehicle: Klucel (hydroxypropylcellulose) (HPC)
[6] = dose: 50.0 mg/kg/injection, schedule: Q01DX001 (ip), vehicle: carboxymethylcellulose (CMC)
[7] = dose: 100.0 mg/kg/injection, schedule: Q01DX001 (ip), vehicle: carboxymethylcellulose (CMC)
[8] = dose: 200.0 mg/kg/injection, schedule: Q01DX001 (ip), vehicle: carboxymethylcellulose (CMC)
[9] = dose: 400.0 mg/kg/injection, schedule: Q01DX001 (ip), vehicle: carboxymethylcellulose (CMC)
[10] = dose: 12.5 mg/kg/injection, schedule: Q04DX003 (ip), vehicle: Klucel (hydroxypropylcellulose) (HPC)
[11] = dose: 25.0 mg/kg/injection, schedule: Q04DX003 (ip), vehicle: Klucel (hydroxypropylcellulose) (HPC)
[12] = dose: 50.0 mg/kg/injection, schedule: Q04DX003 (ip), vehicle: Klucel (hydroxypropylcellulose) (HPC)

Measured: T/C

CC(C)(C)C1CCC(=O)CC1
inactive: dose: 12.5 mg/kg/injection, schedule: Q04DX002 (ip), vehicle: saline 109 % of control | dose: 25.0 mg/kg/injection, schedule: Q04DX002 (ip), vehicle: saline 106 % of control | dose: 50.0 mg/kg/injection, schedule: Q04DX002 (ip), vehicle: saline 95 % of control | dose: 100.0 mg/kg/injection, schedule: Q04DX002 (ip), vehicle: saline 99 % of control

C(#[C][Sn]([C]#Cc1ccccc1)([C]#Cc1ccccc1)[C]#Cc1ccccc1)c1ccccc1
inactive: [1] 92 % of control | dose: 100.0 mg/kg/injection, schedule: Q01DX009 (ip), vehicle: saline with Tween-80 103 % of control | dose: 200.0 mg/kg/injection, schedule: Q01DX009 (ip), vehicle: saline with Tween-80 95 % of control

Clc1ccc([O][Sn]([c]2ccccc2)([c]2ccccc2)[c]2ccccc2)c(-c2ccccc2)c1
inactive: dose: 5.0 mg/kg/injection, schedule: Q01DX001 (ip), vehicle: saline 90 % of control | dose: 10.0 mg/kg/injection, schedule: Q01DX001 (ip), vehicle: saline 96 % of control

CN(C)CCN(C(=O)c1ccc(N)cc1)c1ccccc1
inactive: dose: 50.0 mg/kg/injection, schedule: Q01DX009 (ip), vehicle: saline 91 % of control | dose: 100.0 mg/kg/injection, schedule: Q01DX009 (ip), vehicle: saline 109 % of control

CCCCCCCC(=O)N(CCO)CCO
inactive: dose: 100.0 mg/kg/injection, schedule: Q04DX002 (ip), vehicle: other 96 % of control | dose: 200.0 mg/kg/injection, schedule: Q04DX002 (ip), vehicle: other 101 % of control | dose: 400.0 mg/kg/injection, schedule: Q04DX002 (ip), vehicle: other 96 % of control

Cc1cc(C)c2cc3cccc[n+]3cc2c1
inactive: dose: 2.0 mg/kg/injection, schedule: Q01DX015 (ip), vehicle: saline 100 % of control | dose: 4.0 mg/kg/injection, schedule: Q01DX001 (ip), vehicle: carboxymethylcellulose (CMC) 105 % of control | dose: 4.0 mg/kg/injection, schedule: Q01DX015 (ip), vehicle: saline 107 % of control | dose: 8.0 mg/kg/injection, schedule: Q01DX001 (ip), vehicle: carboxymethylcellulose (CMC) 107 % of control | dose: 16.0 mg/kg/injection, schedule: Q01DX001 (ip), vehicle: carboxymethylcellulose (CMC) 107 % of control

Cc1ccc(NC(=O)C(F)(F)F)cc1F
inactive: dose: 50.0 mg/kg/injection, schedule: Q01DX009 (ip), vehicle: Klucel (hydroxypropylcellulose) (HPC) 93 % of control | dose: 100.0 mg/kg/injection, schedule: Q01DX009 (ip), vehicle: Klucel (hydroxypropylcellulose) (HPC) 104 % of control | dose: 200.0 mg/kg/injection, schedule: Q01DX009 (ip), vehicle: Klucel (hydroxypropylcellulose) (HPC) 97 % of control

CC(C)N1CCC(=O)NC1=O
inactive: [2] 94 % of control | [3] 94 % of control | [4] 94 % of control | dose: 200.0 mg/kg/injection, schedule: Q04DX003 (ip), vehicle: saline 92 % of control | [5] 91 % of control | dose: 400.0 mg/kg/injection, schedule: Q04DX003 (ip), vehicle: saline 103 % of control

CN(C)C(=O)Sc1c(Cl)cc(S(=O)(=O)F)cc1[N+](=O)[O-]
inactive: [2] 102 % of control | [4] 101 % of control | [5] 100 % of control

CC1CC(C)(C)[N+](C)=C(CC(C)(C)O)O1 (stereo not drawn)
inactive: [3] 113 % of control

CCOC(=O)C(C)Oc1cc(C)c(Cl)cc1Cl (stereo not drawn)
inactive: [6] 96 % of control | [7] 96 % of control | [8] 107 % of control | [9] 107 % of control

O=C(CCOCc1ccccc1)N1Cc2cc3ccccc3nc2C1
inactive: dose: 10.0 mg/kg/injection, schedule: Q04DX003 (ip), vehicle: alcohol 96 % of control | dose: 20.0 mg/kg/injection, schedule: Q04DX003 (ip), vehicle: alcohol 97 % of control | dose: 40.0 mg/kg/injection, schedule: Q04DX003 (ip), vehicle: alcohol 92 % of control | dose: 80.0 mg/kg/injection, schedule: Q04DX003 (ip), vehicle: alcohol 103 % of control | dose: 160.0 mg/kg/injection, schedule: Q04DX003 (ip), vehicle: alcohol 92 % of control

C/C(=N/N=C(N)N)C(C)C
inactive: dose: 15.0 mg/kg/injection, schedule: Q01DX Z (ip), vehicle: carboxymethylcellulose (CMC) 102 % of control | dose: 27.0 mg/kg/injection, schedule: Q01DX Z (oral), vehicle: carboxymethylcellulose (CMC) 95 % of control | dose: 30.0 mg/kg/injection, schedule: Q01DX Z (ip), vehicle: carboxymethylcellulose (CMC) 100 % of control | dose: 40.0 mg/kg/injection, schedule: Q01DX Z (oral), vehicle: carboxymethylcellulose (CMC) 98 % of control | dose: 60.0 mg/kg/injection, schedule: Q01DX Z (ip), vehicle: carboxymethylcellulose (CMC) 92 % of control | dose: 60.0 mg/kg/injection, schedule: Q01DX Z (oral), vehicle: carboxymethylcellulose (CMC) 106 % of control | dose: 90.0 mg/kg/injection, schedule: Q01DX Z (oral), vehicle: carboxymethylcellulose (CMC) 98 % of control | dose: 120.0 mg/kg/injection, schedule: Q01DX Z (oral), vehicle: carboxymethylcellulose (CMC) 101 % of control | dose: 135.0 mg/kg/injection, schedule: Q01DX Z (oral), vehicle: carboxymethylcellulose (CMC) 97 % of control

O=C(Nc1ccccc1)Oc1ccc(Cl)cc1Cl
inactive: dose: 100.0 mg/kg/injection, schedule: Q04DX002 (ip), vehicle: Klucel (hydroxypropylcellulose) (HPC) 104 % of control | dose: 200.0 mg/kg/injection, schedule: Q04DX002 (ip), vehicle: Klucel (hydroxypropylcellulose) (HPC) 110 % of control | dose: 400.0 mg/kg/injection, schedule: Q04DX002 (ip), vehicle: Klucel (hydroxypropylcellulose) (HPC) 96 % of control

CC(=O)Nc1ccc(Cc2ccc(NC(C)=O)cc2N)c(N)c1
inactive: dose: 50.0 mg/kg/injection, schedule: Q01DX001 (ip), vehicle: saline 96 % of control | dose: 100.0 mg/kg/injection, schedule: Q01DX001 (ip), vehicle: saline 98 % of control | dose: 200.0 mg/kg/injection, schedule: Q01DX001 (ip), vehicle: saline 104 % of control | dose: 400.0 mg/kg/injection, schedule: Q01DX001 (ip), vehicle: saline 92 % of control

CCOC(=O)CCC(=O)NNc1ccccc1
inactive: [6] 106 % of control | [7] 100 % of control | [8] 102 % of control | [9] 106 % of control

O=C(/C(=C\Cl)CBr)c1ccccc1
inactive: dose: 12.5 mg/kg/injection, schedule: Q01DX009 (ip), vehicle: saline with Tween-80 88 % of control | dose: 25.0 mg/kg/injection, schedule: Q01DX009 (ip), vehicle: saline with Tween-80 88 % of control | dose: 25.0 mg/kg/injection, schedule: Q04DX003 (ip), vehicle: saline with Tween-80 90 % of control | [1] 90 % of control | dose: 50.0 mg/kg/injection, schedule: Q04DX003 (ip), vehicle: saline with Tween-80 92 % of control | dose: 100.0 mg/kg/injection, schedule: Q04DX003 (ip), vehicle: saline with Tween-80 98 % of control

CCCC[P+](CO)(CCCC)CCCC
inactive: dose: 30.0 mg/kg/injection, schedule: Q01DX001 (ip), vehicle: saline 102 % of control

N#Cc1nc2c(nc1N)CCCCCCCCCC2
inactive: dose: 100.0 mg/kg/injection, schedule: Q01DX001 (ip), vehicle: Klucel (hydroxypropylcellulose) (HPC) 96 % of control | dose: 400.0 mg/kg/injection, schedule: Q01DX001 (ip), vehicle: Klucel (hydroxypropylcellulose) (HPC) 92 % of control

FC(F)(F)C(=Cc1nc2ccccc2s1)C(F)(F)F
inactive: dose: 12.5 mg/kg/injection, schedule: Q01DX009 (ip), vehicle: Klucel (hydroxypropylcellulose) (HPC) 91 % of control | [10] 93 % of control | dose: 25.0 mg/kg/injection, schedule: Q01DX009 (ip), vehicle: Klucel (hydroxypropylcellulose) (HPC) 98 % of control | [11] 97 % of control | [12] 95 % of control

c1ccc(C2=C(c3ccccc3)NC(c3ccccc3)N2)cc1
inactive: [10] 102 % of control | [11] 100 % of control | [12] 98 % of control | [2] 96 % of control

O=C(CC(C(=O)c1ccccc1)N1CCN(Cc2ccccc2)CC1)c1ccccc1 (stereo not drawn)
inactive: [6] 92 % of control | [7] 94 % of control | [8] 92 % of control | [9] 97 % of control
